From patent publication US8017584B2, “GD3-mimetic peptides” (Otsuka Pharmaceutical Co., Ltd., priority 2000, dated 2011)
Where “and” joins values, the source holds several entries; their conditions need not be identical. Equal entries are not always repeated.

Key:
GD3 antibody 4F6 [1] = assay: ELISA of immobilized phage clones with GD3 antibody 4F6 (Example 2); format: binding, mouse; settings: phage clone immobilized, duplicate lines
Procedure: (§1) A 0.1M NaHCO3 solution containing each of the phage clones obtained in Example 1 (10^11, 10^10, or 10^9 titer/100 μL) was added to the wells of a 96-well microtiter plate (product of Nunc), for immobilization of the phage clones at room temperature for one hour. The supernatant was removed, then the wells were subjected to blocking by use of a blocking solution ([…]; TBS containing 1% BSA, 0.1% skim milk, and 0.02% Tween 20; pH 7.5) at 37° C. for four hours.
(§2) The supernatant was removed, then GD3 antibody 4F6 (100 μL), serving as a primary antibody, was added to each well for reaction under shaking at room temperature for two hours. After completion of reaction, the supernatant was removed, then the wells were washed six times with a washing solution (400 μL for each well, TBS containing 0.05% Tween 20). Subsequently, a secondary antibody (anti-mouse IgG-HRP, product of Santa Cruz Biotechnology, catalogue No. SC-2031, Lot. No. C089) which was diluted 5,000-fold by use of a blocking solution prepared in advance was added to the wells (100 μL to each well) for reaction under shaking at room temperature for one hour. After completion of reaction, the wells were washed four times with a washing solution (400 μL for each well), then a detection reagent (TMB Microwell; product of KPL, Catalogue No. 50-76-04, Lot. No. WF075) was added to the wells (100 μL to each well), and the mixture was allowed to stand for five minutes at room temperature.
(§3) 1N-Hydrochloric acid (100 μL) was added to each well for stopping the reaction. Absorbance of each well was measured at 450 nm and 620 nm, and “OD450-OD620” was calculated. A Multiscan (product of Labosystems) was used in measurement of absorbance. A well in which phages had not been immobilized served as a blank, and the absorbance of each well was determined by subtracting the blank value from the “as-measured” value.

[2] = tested on: T-cell-rich lymphocytes / IL-2-dependent CTLL2 cells; assay: Cell response test: IL-2 activity (3H thymidine up-take of CTLL2 cells) in supernatant of spleen cells of mice immunized with GD3; format: cell-based, mouse; settings: mice immunized with GD3
Anti-GD2 antibody = assay: ELISA of immobilized MAP-form peptides with control anti-GD2 antibody; format: binding; settings: MAP form 100 ng/well
Procedure: (§4) A 0.1M NaHCO3 solution containing a GD3-mimetic peptide of the invention in the above MAP form (100 ng/100 μL) was added to the wells of a 96-well micro-titer plate, for immobilization at room temperature for one hour. Subsequently, in a manner similar to the ELISA method employed in Example 2, binding affinity of the GD3-mimetic peptide to GD3 antibody 4F6 was investigated.
(§5) Anti-GD2 antibody and anti-OAcGD3 antibody (Cerato, E., et al., Hybridoma, 16(4), 307-316 (1997)) were used as controls (these antibodies were kindly provided by from Dr. Portoukalian).

[3] = tested on: T-cell-rich lymphocytes / IL-2-dependent CTLL2 cells; assay: Cell response test: IL-2 activity (3H thymidine up-take of CTLL2 cells) in supernatant of spleen cells of mice immunized with R4 peptide (R4-KLH); format: cell-based, mouse; settings: mice immunized with R4 peptide
Anti-OAcGD3 antibody = assay: ELISA of immobilized MAP-form peptides with control anti-OAcGD3 antibody; format: binding; settings: MAP form 100 ng/well
Procedure: as §4, §5

GD3 antibody 4F6 [4] = assay: ELISA of immobilized MAP-form GD3-mimetic peptides with anti-GD3 antibody (Example 3(3)); format: binding, mouse; settings: MAP form 100 ng/well
Procedure: as §1, §2, §3, §4, §5

[5] = stimulant 1 μg/ml, supernatant dilution 1/20
[6] = stimulant 1 μg/ml, supernatant dilution 1/50
[7] = stimulant 1 μg/ml, supernatant dilution ½
[8] = stimulant 1 μg/ml, supernatant dilution ⅕
[9] = stimulant 2 μg/ml, supernatant dilution 1/20
[10] = stimulant 2 μg/ml, supernatant dilution 1/50
[11] = stimulant 2 μg/ml, supernatant dilution ½
[12] = stimulant 2 μg/ml, supernatant dilution ⅕
[13] = stimulant 5 μg/ml, supernatant dilution 1/20
[14] = stimulant 5 μg/ml, supernatant dilution 1/50
[15] = stimulant 5 μg/ml, supernatant dilution ½
[16] = stimulant 5 μg/ml, supernatant dilution ⅕

Sequence: LAPPRPRSELVFLSV (LAPPRPRSQLVFLSV) [GD3R1, tested as phage clone, MAP form or peptide]
- absorbance OD450-OD620, binding to GD3 antibody 4F6 (GD3 antibody 4F6 [1]; 10^9 titer/well): 0.017 and 0.026
- absorbance OD450-OD620, binding to GD3 antibody 4F6 (GD3 antibody 4F6 [1]; 10^10 titer/well): 0.067 and 0.055
- absorbance OD450-OD620, binding to GD3 antibody 4F6 (GD3 antibody 4F6 [1]; 10^11 titer/well): 0.094 and 0.086
- 3H Thymidine up-take into CTLL2 cells, mean ± SE (4 wells) [2, 5]: 888 ± 107
- 3H Thymidine up-take into CTLL2 cells, mean ± SE (4 wells) [2, 6]: 234 ± 43
- 3H Thymidine up-take into CTLL2 cells, mean ± SE (4 wells) [2, 7]: 3014 ± 671
- 3H Thymidine up-take into CTLL2 cells, mean ± SE (4 wells) [2, 8]: 1967 ± 276
- 3H Thymidine up-take into CTLL2 cells, mean ± SE (4 wells) [2, 9]: 906 ± 121
- 3H Thymidine up-take into CTLL2 cells, mean ± SE (4 wells) [2, 10]: 246 ± 38
- 3H Thymidine up-take into CTLL2 cells, mean ± SE (4 wells) [2, 11]: 3219 ± 546
- 3H Thymidine up-take into CTLL2 cells, mean ± SE (4 wells) [2, 12]: 1831 ± 259
- 3H Thymidine up-take into CTLL2 cells, mean ± SE (4 wells) [2, 13]: 942 ± 116
- 3H Thymidine up-take into CTLL2 cells, mean ± SE (4 wells) [2, 14]: 251 ± 44
- 3H Thymidine up-take into CTLL2 cells, mean ± SE (4 wells) [2, 15]: 3344 ± 497
- 3H Thymidine up-take into CTLL2 cells, mean ± SE (4 wells) [2, 16]: 1956 ± 285
- ELISA absorbance, Anti-GD2 antibody (Anti-GD2 antibody; Serum % 12.50%): 0.065
- ELISA absorbance, Anti-GD2 antibody (Anti-GD2 antibody; Serum % 25%): 0.067
- ELISA absorbance, Anti-GD2 antibody (Anti-GD2 antibody; Serum % 50%): 0.095
- ELISA absorbance, Anti-GD2 antibody (Anti-GD2 antibody; Serum % 100%): 0.123
- 3H Thymidine up-take into CTLL2 cells, mean ± SE (4 wells) [3, 5]: 949 ± 136
- 3H Thymidine up-take into CTLL2 cells, mean ± SE (4 wells) [3, 6]: 225 ± 38
- 3H Thymidine up-take into CTLL2 cells, mean ± SE (4 wells) [3, 7]: 3218 ± 716
- 3H Thymidine up-take into CTLL2 cells, mean ± SE (4 wells) [3, 8]: 1876 ± 281
- 3H Thymidine up-take into CTLL2 cells, mean ± SE (4 wells) [3, 9]: 845 ± 147
- 3H Thymidine up-take into CTLL2 cells, mean ± SE (4 wells) [3, 10]: 220 ± 40
- 3H Thymidine up-take into CTLL2 cells, mean ± SE (4 wells) [3, 11]: 3417 ± 542
- 3H Thymidine up-take into CTLL2 cells, mean ± SE (4 wells) [3, 12]: 1864 ± 327
- 3H Thymidine up-take into CTLL2 cells, mean ± SE (4 wells) [3, 13]: 901 ± 152
- 3H Thymidine up-take into CTLL2 cells, mean ± SE (4 wells) [3, 14]: 236 ± 45
- 3H Thymidine up-take into CTLL2 cells, mean ± SE (4 wells) [3, 15]: 3469 ± 612
- 3H Thymidine up-take into CTLL2 cells, mean ± SE (4 wells) [3, 16]: 1781 ± 285
- ELISA absorbance, Anti-OAcGD3 antibody (Anti-OAcGD3 antibody; Serum % 12.50%): 0.04
- ELISA absorbance, Anti-OAcGD3 antibody (Anti-OAcGD3 antibody; Serum % 25%): 0.041
- ELISA absorbance, Anti-OAcGD3 antibody (Anti-OAcGD3 antibody; Serum % 50%): 0.046
- ELISA absorbance, Anti-OAcGD3 antibody (Anti-OAcGD3 antibody; Serum % 100%): 0.053
- ELISA absorbance, Anti-GD3 antibody (GD3 antibody 4F6 [4]; Serum % 12.50%): 0.083
- ELISA absorbance, Anti-GD3 antibody (GD3 antibody 4F6 [4]; Serum % 25%): 0.127
- ELISA absorbance, Anti-GD3 antibody (GD3 antibody 4F6 [4]; Serum % 50%): 0.137
- ELISA absorbance, Anti-GD3 antibody (GD3 antibody 4F6 [4]; Serum % 100%): 0.263
